According to US9371527B2, “Compositions and methods related to protein displacement therapy for myotonic distrophy” (University of Rochester, priority 2006, dated 2016):

Test system: ClC-1 channel
Test: Whole cell patch clamp of single FDB muscle fibers after morpholino injection/electroporation
Assay type: in vivo, HSA^LR mice
Details: for ClC-1 current density: 3-5 days after foot pad injection/electroporation; for ClC-1 deactivation kinetics: 3-5 days after injection, -100 mV
Method: Antisense morpholino targeting the 3′ splice junction of ClC-1 exon 7a was injected into foot pad muscle of HSA^LR mice under general anesthesia. Uptake into muscle fibers was enhanced by in vivo electroporation. The morpholino was tagged with fluorescein. 4 days later, individual FDB muscle fibers were isolated. […] As a control, the opposite footpad was injected with morpholino having the inverted sequence. […] The peak current density in HSA^LR mice (center panel) is much lower than in wild-type mice (left panel). However, after morpholino treatment in HSA^LR mice (right panel), the current density is restored to levels that are similar to wild-type mice. […] The antisense morpholino (closed squares) restores chloride current density to normal levels (open circles or triangles).
The dashed lines represent the zero current level. Capacitative currents recorded from each fiber are shown in the insert of each panel (scale bars: vertical, 3 nA; horizontal, 4 ms). Superimposed traces (solid lines) of normalized ClC-1 current deactivation at −100 mV in FDB fibers obtained from invert- (circles) and antisense-treated (squares) HSA^LR mice and antisense-treated WT mice (triangles) fit with a second order exponential (symbols) are shown in the insert to the left hand panel. Note that accelerated ClC-1 deactivation kinetics of FDB fibers obtained from HSA^LR mice is normalized only following treatment with antisense morpholino. […] Smooth curves through each dataset were generated using a modified Boltzmann equation (Lueck, J. D., et al. (2007) J Gen Physiol 129:79-94). […] Mean±s.e.m.; *P<0.05 invert-treated HSA^LR fibers compared to each of the other experimental conditions; t-test. […] Mean±s.d.; n=3 to 7 per group. Antisense morpholino was injected into one TA, invert morpholino was injected into the contralateral TA, and gastrocnemius muscle served as an untreated control. **P<0.0001 for antisense- vs invert-treated control; ANOVA.
Therefore, the effect of AON treatment on ClC-1 channel function was determined Hindlimb foot pads of […] WT and HSA^LR mice were injected/electroporated with carboxyfluorescein-labeled antisense or invert morpholino. Patch clamp analysis was performed three-to-five days after injection, at a time when fibers were still small enough to maintain an effective voltage clamp (Lueck, J. D., et al. (2007) J Gen Physiol 129:79-94). […] Rescue of ClC-1 activity was not due to a shift in channel activation since the voltage dependence of relative channel open probability (Po) was not different between antisense and invert-injected HSA^LR and WT fibers (FIG. 26C).
Delivery of antisense and invert morpholinos into FDB fibers was achieved by injection and electroporation of hindlimb footpads. Briefly, 12-14-day-old HSA^LR mice were anesthetized by intraperitoneal injection of 100 mg/kg ketamine, 10 mg/kg xylazine, and 3 mg/kg acepromazine. Hindlimb foot pads then were injected with bovine hyaluronidase followed 1 hour later with 20 μg (10 μl, 2 μg/μl in PBS) of antisense or invert carboxyfluorescein-labeled morpholino. Uptake of morpholinos was enhanced by electroporation (100 V/cm, 20 pulses at 1 Hz, and 20 ms per pulse) of the foot pad immediately after injection (DiFranco, M., et al. (2006) Protein Expr Purif 47:281-288). Three to five days after injection/electroporation, individual FDB muscle fibers were isolated as previously described (Lueck, J. D., et al. (2007) J Gen Physiol 129:79-94). Brightfield and fluorescence (488 nm excitation) images of single FDB fibers were acquired using a 40× (1.4 NA) objective and a TILL IMAGO QE cooled-CCD camera. […] ClC-1 currents were measured and analyzed in whole cell patch clamp experiments (Hamill, O. P., et al. (1981) Pflugers Arch 391:85-100) using an approach identical to that described in detail elsewhere (Lueck, J. D., et al. (2007) J Gen Physiol 129:79-94). ClC-1 current density (pA/pF) was calculated in order to compare data across fibers of different sizes. […]

Question: For “control morpholino: control morpholino 5′-GAAGAGACAACGTCTGGCACGGACC-3′, the 5′-3′ invert of the 3′ splice site blocker (all phosphorodiamidate morpholino (PMO)) [reference compound]”, which ClC-1 current density (listed as invert morpholino) is on record?
Answer: not different from those of untreated HSA^LR fibers

Question: And the ClC-1 current density (listed as inverted morpholino)?
Answer: markedly reduced

Question: And the ClC-1 deactivation kinetics?
Answer: not different from those of untreated HSA^LR fibers

Question: For “antisense 1: morpholino 5′-CCAGGCACGGTCTGCAACAGAGAAG-3′ targeting the 3′ splice site of ClC-1 exon 7a (all phosphorodiamidate morpholino (PMO))”, which ClC-1 current density (listed as antisense morpholino) is on record?
Answer: restores normal chloride current density

Question: And the ClC-1 current density (listed as morpholino AON)?
Answer: rescued to WT values

Question: What about the ClC-1 deactivation kinetics (listed as antisense morpholino) of the same substance?
Answer: normalized

Question: What about the ClC-1 deactivation kinetics (listed as morpholino AON) of the same substance?
Answer: rescued to WT values

Question: What about the “voltage dependence of relative channel open probability (Po)” value (HSA^LR and WT) of the same substance?
Answer: not different
